From patent US20050054559A1, “Compounds for sustained release of orally delivered drugs” (priority 2000, published 2005)

How the values were obtained:
IBAT = IBAT (Homo sapiens, UniProt Q12908); assay: Electrogenic transport in Xenopus oocytes expressing IBAT; type: cell-based
Excerpt: (§1) RNA preparation: Human IBAT and LBAT Transporter cDNAs were subcloned into a modified pGEM plasmid that contains 5′ and 3′ untranslated sequences from the Xenopus β-actin gene. These sequences increase RNA stability and protein expression. Plasmid cDNA was linearized and used as template for in vitro transcription (Epicentre Technologies transcription kit, 4:1 methylated:non-methylated GTP).
(§2) Xenopus oocyte isolation. Xenopus laevis frogs were anesthetized by immersion in Tricaine ([…] in deionized water) for 15 min. Oocytes were removed and digested in frog ringer solution (90 mM NaCl, 2 mM KCl, 1 mM MgCl2, 10 mM NaHEPES, pH 7.45, no CaCl2) with 1 mg/mL collagenase (Worthington Type 3) for 80-100 min with shaking. The oocytes were washed 6 times, and the buffer changed to frog ringer solution containing CaCl2 (1.8 mM). Remaining follicle cells were removed if necessary. Cells were incubated at 16° C., and each oocyte injected with […] RNA in […] solution.
(§3) Electrophysiology measurements. Transport currents were measured 2-14 days after injection, using a standard two-electrode electrophysiology set-up (Geneclamp 500 amplifier, Digidata 1320/PCLAMP software and ADInstruments hardware and software were used for signal acquisition). Electrodes ([…]) were microfabricated using a Sutter Instrument puller and filled with 3M KCl. The bath was directly grounded (transporter currents were less than 0.3 μA). Bath flow was controlled by an automated perfusion system (ALA Scientific Instruments, solenoid valves).
For transporter pharmacology, oocytes were clamped at −60 to −90 mV, and continuous current measurements acquired using PowerLab Software and an ADInstruments digitizer. Current signals were lowpass filtered at 20 Hz and acquired at 4-8 Hz. All bath and drug-containing solutions were frog ringers solution containing CaCl2. Drugs were applied for 10-30 seconds until the induced current reached a new steady-state level, followed by a control solution until baseline currents returned to levels that preceded drug application. The difference current (baseline subtracted from peak current during drug application) reflected the net movement of charge resulting from electrogenic transport and was directly proportional to tranport rate. Recordings were made from a single oocyte for up to 60 min, enabling 30-40 separate compounds to be tested per oocyte. […]. Using this normalization procedure Vmax (i.e. maximal induced current) for different compounds tested on different oocytes could be compared.

LBAT = target: T1, LBAT (Homo sapiens, UniProt Q14973); assay: Electrogenic transport in Xenopus oocytes expressing LBAT; type: cell-based
T1 sequence (Q14973 1-349): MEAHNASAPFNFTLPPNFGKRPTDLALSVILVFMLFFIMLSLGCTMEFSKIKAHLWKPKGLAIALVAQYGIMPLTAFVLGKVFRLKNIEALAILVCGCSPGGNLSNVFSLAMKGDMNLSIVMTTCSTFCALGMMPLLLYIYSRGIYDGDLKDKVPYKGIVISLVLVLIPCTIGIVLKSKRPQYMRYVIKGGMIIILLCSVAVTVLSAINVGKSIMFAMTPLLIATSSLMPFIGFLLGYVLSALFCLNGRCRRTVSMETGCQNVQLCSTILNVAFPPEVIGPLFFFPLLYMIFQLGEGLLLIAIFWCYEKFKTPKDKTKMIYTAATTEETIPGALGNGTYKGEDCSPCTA
Excerpt: as §1, §2
as §3, with “The bath was directly grounded (transporter currents were less than 0.3 μA). Bath flow was controlled by an automated perfusion system (ALA Scientific Instruments, solenoid valves).” left out

Sequence of IBAT (Q12908 whole entry): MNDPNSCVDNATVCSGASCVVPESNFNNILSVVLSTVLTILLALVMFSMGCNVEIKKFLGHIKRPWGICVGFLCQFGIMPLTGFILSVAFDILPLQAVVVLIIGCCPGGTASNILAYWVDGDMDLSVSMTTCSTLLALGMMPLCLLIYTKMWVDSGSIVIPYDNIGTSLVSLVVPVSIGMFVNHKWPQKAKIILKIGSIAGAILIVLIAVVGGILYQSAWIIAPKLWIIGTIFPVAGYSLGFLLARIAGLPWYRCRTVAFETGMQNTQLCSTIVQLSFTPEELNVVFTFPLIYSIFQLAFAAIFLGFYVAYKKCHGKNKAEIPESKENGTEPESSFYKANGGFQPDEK

CC(CCC(=O)NCC1(CC(=O)O)CCCCC1)C1CCC2C3C(O)CC4CC(O)CCC4(C)C3CC(O)C12C (stereo not shown) [Compound (4)]
EC50 (IBAT): 70 µM | % Max. (GDC) (IBAT; relative to glycodeoxycholate): 67% | EC50 (LBAT): 19 µM | % Max. (GDC) (LBAT; relative to glycodeoxycholate): 38%
